How the values were obtained:
Type in all cases: in vivo
Details in all cases: application rate 1280 g/ha, scored visually after about 3 weeks
[1] = system: Polygonum convolvulus (=Fallopia convolvulus); experiment: Pre-emergence herbicidal action, POLCO
Excerpt: (§1) Pre-Emergence Herbicidal Action Seeds of mono- and dicotyledonous weed plants or crop plants were placed in sandy loam in wood fibre pots and covered with soil. The formulated compounds of the general formula (I) according to the invention were then applied to the surface of the covering soil in the form of an aqueous suspension or emulsion at an application rate of 600 l of water/ha (converted) with addition of 0.2% wetting agent. After the treatment, the pots were placed in a greenhouse and kept under good growth conditions for the test plants. After about 3 weeks, the effect was scored visually in percent in comparison to untreated controls. For example, 100% activity=the plants have died, 50% herbicidal activity or damage=plants reduced to 50% or plant material reduced by 50%, 0% activity=like control plants. Here, in the biological tests, the compounds of the general formula (I) according to the invention were in each case employed in a formulation, with the numerations of Tables I.1 to I.77 also applying here. Here, the herbicidal action of the compounds of the general formula (I) according to the invention was examined for the following harmful plants: POLCO=Polygonum convolvulus (=Fallopia convolvulus) The respective herbicidal action was in each case determined at the same point in time after application of the formulation in question, i.e. damage of the harmful plant in question in %. Pre-emergence herbicidal action of the compounds of the general formula (I) according to the invention: […]

Ipomoea purpurea = experiment: Pre-emergence herbicidal action, PHBPU
Excerpt: as §1, with “PHBPU=Ipomoea purpurea” for “POLCO=Polygonum convolvulus (=Fallopia convolvulus)”

Alopecurus myosuroides = experiment: Pre-emergence herbicidal action, ALOMY
Excerpt: as §1, with “ALOMY=Alopecurus myosuroides” for “POLCO=Polygonum convolvulus (=Fallopia convolvulus)”

Setaria viridis = experiment: Pre-emergence herbicidal action, SETVI
Excerpt: as §1, with “SETVI=Setaria viridis” for “POLCO=Polygonum convolvulus (=Fallopia convolvulus)”

Stellaria media = experiment: Pre-emergence herbicidal action, STEME
Excerpt: as §1, with “STEME=Stellaria media” for “POLCO=Polygonum convolvulus (=Fallopia convolvulus)”

For `CC1=C(C)C(O)N(C2=NN(c3ccccc3)C(C(F)(F)F)C2)C1=O` (stereo not drawn) [I.2-1413], the “Pre-emergence herbicidal action POLCO, damage of the harmful plant” value (“Pre-emergence herbicidal action POLCO” for short) [1] was 100%, the “Pre-emergence herbicidal action PHBPU, damage of the harmful plant” value (from here on “Pre-emergence herbicidal action PHBPU”) (Ipomoea purpurea) was 0% and the “Pre-emergence herbicidal action ALOMY, damage of the harmful plant” value (from here on “Pre-emergence herbicidal action ALOMY”) (Alopecurus myosuroides) was 70%. For the same compound, the “Pre-emergence herbicidal action SETVI, damage of the harmful plant” value (from here on “Pre-emergence herbicidal action SETVI”) (Setaria viridis) was 70% and the “Pre-emergence herbicidal action STEME, damage of the harmful plant” value (from here on “Pre-emergence herbicidal action STEME”) (Stellaria media) was 100%.
In the case of `CC1=C(C)C(O)N(C2=NN(c3ccccn3)C(C)(C)C2)C1=O` (stereo not drawn) [I.2-132], the “Pre-emergence herbicidal action POLCO” value [1] is reported as 40%, the “Pre-emergence herbicidal action PHBPU” value (Ipomoea purpurea) is reported as 0% and the “Pre-emergence herbicidal action ALOMY” value (Alopecurus myosuroides) is reported as 70%. For the same compound, the “Pre-emergence herbicidal action SETVI” value (Setaria viridis) was 40% and the “Pre-emergence herbicidal action STEME” value (Stellaria media) was 100%.
With `CCC(=O)OC1C(C)=C(Cl)C(=O)N1C1=NN(C)C(c2ccccc2)C1` (stereo not drawn) [I.24-1126] the “Pre-emergence herbicidal action POLCO” value [1] was 0%, the “Pre-emergence herbicidal action PHBPU” value (Ipomoea purpurea) was 100% and the “Pre-emergence herbicidal action ALOMY” value (Alopecurus myosuroides) was 10%. For the same compound, the “Pre-emergence herbicidal action SETVI” value (Setaria viridis) was 0% and the “Pre-emergence herbicidal action STEME” value (Stellaria media) was 20%.
`CCC(=O)OC1C(C)=C(C)C(=O)N1C1=NN(c2ccccc2)C(C(F)(F)F)C1` (stereo not drawn) [I.23-1413] was tested, and the “Pre-emergence herbicidal action POLCO” value [1] was 80%, the “Pre-emergence herbicidal action PHBPU” value (Ipomoea purpurea) was 0% and the “Pre-emergence herbicidal action ALOMY” value (Alopecurus myosuroides) was 0%. The “Pre-emergence herbicidal action SETVI” value (Setaria viridis) was 40% and the “Pre-emergence herbicidal action STEME” value (Stellaria media) was 80%.
For `CCC(=O)OC1C(C)=C(C)C(=O)N1C1=NN(c2ccccn2)C(C)(C)C1` (stereo not drawn) [I.23-132], the “Pre-emergence herbicidal action POLCO” value [1] was 0%, the “Pre-emergence herbicidal action PHBPU” value (Ipomoea purpurea) was 30% and the “Pre-emergence herbicidal action ALOMY” value (Alopecurus myosuroides) was 60%. For the same compound, the “Pre-emergence herbicidal action SETVI” value (Setaria viridis) was 0% and the “Pre-emergence herbicidal action STEME” value (Stellaria media) was 100%.
For `CCC(=O)OC1C(C)=C(C)C(=O)N1C1=NN(c2ccccc2)CC1` (stereo not drawn) [I.23-621], the “Pre-emergence herbicidal action POLCO” value [1] was 100%, the “Pre-emergence herbicidal action PHBPU” value (Ipomoea purpurea) was 0% and the “Pre-emergence herbicidal action ALOMY” value (Alopecurus myosuroides) was 0%. For the same compound, the “Pre-emergence herbicidal action SETVI” value (Setaria viridis) was 50% and the “Pre-emergence herbicidal action STEME” value (Stellaria media) was 0%.

From US20190166840A1, “SUBSTITUTED PYRAZOLINYL DERIVATIVES, PROCESSES FOR THEIR PREPARATION AND THEIR USE AS HERBICIDES AND/OR PLANT GROWTH REGULATORS” (BAYER CROPSCIENCE AKTIENGESELLSCHAFT, priority 2016, published 2019)
